Results taken from publication PMC8480776, “Selenium Derivatives as Promising Therapy for Chagas Disease: In Vitro and In Vivo Studies” (ACS Infectious Diseases, 2021).
Read-outs that look alike come from different tables or passages of the source.

Assays:
[1] = test system: T. cruzi amastigotes, Arequipa strain; test: Screening against intracellular amastigotes, Arequipa strain; type: cell-based, Trypanosoma cruzi; settings: Trypanosoma cruzi; amastigotes in Vero cells, 72 h; read-out: activity IC50, Arequipa strain, am. forms
[2] = test system: T. cruzi amastigotes, Tulahuen strain; test: Screening against intracellular amastigotes, Tulahuen strain; type: cell-based, Trypanosoma cruzi; settings: Trypanosoma cruzi, TULAHUEN; amastigotes in Vero cells, 72 h; read-out: activity IC50, Tulahuen strain, am. forms
[3] = test system: T. cruzi trypomastigotes, Tulahuen strain; test: Screening against bloodstream trypomastigotes, Tulahuen strain; type: cell-based, Trypanosoma cruzi; settings: Trypanosoma cruzi, TULAHUEN; bloodstream trypomastigotes, 24 h + 4 h resazurin; read-out: activity IC50, Tulahuen strain, trypom. forms
[4] = test system: T. cruzi amastigotes, SN3 strain; test: Screening against intracellular amastigotes, SN3 strain; type: cell-based, Trypanosoma cruzi; settings: Trypanosoma cruzi; amastigotes in Vero cells, 72 h; read-out: activity IC50, SN3 strain, am. forms
[5] = test system: epimastigotes of T. cruzi Arequipa strain; test: Flow cytometry analysis of nucleic acid levels (acridine orange); type: cell-based, Trypanosoma cruzi; settings: IC25 concentrations, 72 h
[6] = type: in vivo, BALB/c mice; settings: variation vs control
Experimental: (§1) Female BALB/c mice aged 10–12 weeks and with a size of 20–24 g were divided into five groups (n = 3 per group): 0, negative control group (uninfected and untreated mice); I, positive control group (infected and untreated mice); II, BZN group (infected mice treated with BZN); III, 26 group (infected mice treated with 26); and IV, 28 group (infected mice treated with 28).
(§2) The tested selenocompounds and BZN were prepared at 2 mg·mL^–1 in an aqueous suspension vehicle containing 5% (v/v) DMSO and 0.5% (w/v) hydroxypropyl methylcellulose, as previously reported.[52] Compounds (20 mg·kg^–1 per day) were administered for 5 consecutive days (total dosages of 100 mg·kg^–1), and vehicle only was administered in the negative and positive control groups. Treatments began when the infection was confirmed (9 dpi) for acute-phase-treated mice, and when it was established that the animals moved into the chronic phase (100 dpi, for chronic-phase-treated mice; Scheme 1).
Serum samples obtained from blood in several days post-infection (Scheme 1) were sent to the Biochemical Service (University of Granada) to measure a series of biochemical parameters with the commercial Cromakit using a clinical chemistry analyzer (BS-200, Shenzhen Mindray Biomedical Electronics Co., LTD), as previously described.[41]

[7] = test system: T. cruzi trypomastigotes, Arequipa strain; test: Screening against bloodstream trypomastigotes, Arequipa strain; type: cell-based, Trypanosoma cruzi; settings: Trypanosoma cruzi; bloodstream trypomastigotes, 24 h + 4 h resazurin; read-out: activity IC50, Arequipa strain, trypom. forms
[8] = test system: Vero cells infected with T. cruzi Arequipa strain; test: Infection rate in Vero cells (infected cells), Arequipa strain; type: cell-based; settings: Trypanosoma cruzi, 72 h of treatment
Vero cells = test: Cytotoxicity test on Vero cells; type: cell-based; settings: Chlorocebus sabaeus, 48 h + 24 h resazurin, read-out: Toxicity IC50 Vero cell
T. cruzi Arequipa strain = test: In vivo trypanocidal activity on BALB/c mice (acute and chronic Chagas disease); set-up: species or system Trypanosoma cruzi
Experimental: as §1
Mice were infected by intraperitoneal injection of 5 × 10^5 BTs of T. cruzi Arequipa strain per mouse in 200 μL PBS.[42] Subsequently, the treatment was intraperitoneally administered (∼200 μL) once daily for 5 consecutive days.
as §2
[…]. Parasitemia was expressed as parasites·mL^–1.
Immunosuppression was performed by intraperitoneal injection of three doses of 200 mg·kg^–1 of ISOPAC CP at 3–4 day intervals (Scheme 1), as previously reported.[53] Mice were closely monitored for side effects or for secondary infections due to immunosuppression. Within 7 days after the last CP injection, parasitemia reactivation was determined by counting BTs according the procedure described for parasitemia in the acute phase.[42]
On 145 dpi, the mice were euthanized using CO2, followed by exsanguination via cardiac puncture, and blood was collected. […]. In addition, spleens were weighed to assess splenomegaly.[42]
DNA extraction of the post-mortem organs/tissues was performed using Wizard Genomic DNA Purification Kit,[41] and the extracted DNA was subjected to amplification by PCR based on the spliced leader (SL) intergenic region sequence of T. cruzi (for detailed description, see literature reported previously).[55] Finally, the PCR products were resolved by electrophoresis on a 2% agarose gel (containing GelRed nucleic gel stain) for 90 min at 90 V.
Circulating antibodies in serum against both antigens were quantitatively evaluated in triplicate by the ELISA test in 96-well plates using diluted serum samples (1:80 in PBS), as previously described.[41]

[9] = test system: T. cruzi epimastigotes, Tulahuen strain; test: Screening against extracellular epimastigotes, Tulahuen strain; type: cell-based, Trypanosoma cruzi; settings: Trypanosoma cruzi, TULAHUEN; 48 h + 24 h resazurin; read-out: Activity IC50, epimastigote form, Tulahuen strain
[10] = treatment in acute phase, 15th dpi (2 days after treatment)
[11] = treatment in acute phase, necropsy day
[12] = treatment in chronic phase, 106th dpi (2 days after treatment)
[13] = treatment in chronic phase, necropsy day

O=C(Cn1ccnc1[N+](=O)[O-])NCc1ccccc1 [BZN, benznidazole, reference compound]
IC50 [1]: 8.3 ± 0.7 µM
IC50 [2]: 10 ± 0.8 µM
IC50 [3]: 15.1 ± 1.3 µM
IC50 [4]: 16.6 ± 1.4 µM
inhibition of nucleic acid levels [5]: up to 22%
ALP (liver marker) [6, 10]: = (=, variation ≤ 10%)
ALT/GPT (liver marker) [6, 10]: ++ (++/--, 20-30% increase/decrease over the range)
AST/GOT (liver marker) [6, 10]: ++++ (++++/----, ˃ 40% increase/decrease over the range)
CK-MB (heart marker) [6, 10]: = (=, variation ≤ 10%)
LDH (heart marker) [6, 10]: = (=, variation ≤ 10%)
Total bilirubin (liver marker) [6, 10]: ++++ (++++/----, ˃ 40% increase/decrease over the range)
Urea (kidney marker) [6, 10]: -- (++/--, 20-30% increase/decrease over the range)
Uric acid (kidney marker) [6, 10]: ---- (++++/----, ˃ 40% increase/decrease over the range)
ALP (liver marker) [6, 11]: = (=, variation ≤ 10%)
ALT/GPT (liver marker) [6, 11]: = (=, variation ≤ 10%)
AST/GOT (liver marker) [6, 11]: + (+/-, 10-20% increase/decrease over the range)
CK-MB (heart marker) [6, 11]: - (+/-, 10-20% increase/decrease over the range)
LDH (heart marker) [6, 11]: = (=, variation ≤ 10%)
Total bilirubin (liver marker) [6, 11]: ++ (++/--, 20-30% increase/decrease over the range)
Urea (kidney marker) [6, 11]: -- (++/--, 20-30% increase/decrease over the range)
Uric acid (kidney marker) [6, 11]: - (+/-, 10-20% increase/decrease over the range)
ALP (liver marker) [6, 12]: ++++ (++++/----, ˃ 40% increase/decrease over the range)
ALT/GPT (liver marker) [6, 12]: ++ (++/--, 20-30% increase/decrease over the range)
AST/GOT (liver marker) [6, 12]: + (+/-, 10-20% increase/decrease over the range)
CK-MB (heart marker) [6, 12]: -- (++/--, 20-30% increase/decrease over the range)
LDH (heart marker) [6, 12]: -- (++/--, 20-30% increase/decrease over the range)
Total bilirubin (liver marker) [6, 12]: + (+/-, 10-20% increase/decrease over the range)
Urea (kidney marker) [6, 12]: - (+/-, 10-20% increase/decrease over the range)
Uric acid (kidney marker) [6, 12]: - (+/-, 10-20% increase/decrease over the range)
ALP (liver marker) [6, 13]: = (=, variation ≤ 10%)
ALT/GPT (liver marker) [6, 13]: ++ (++/--, 20-30% increase/decrease over the range)
AST/GOT (liver marker) [6, 13]: + (+/-, 10-20% increase/decrease over the range)
CK-MB (heart marker) [6, 13]: -- (++/--, 20-30% increase/decrease over the range)
LDH (heart marker) [6, 13]: -- (++/--, 20-30% increase/decrease over the range)
Total bilirubin (liver marker) [6, 13]: ++ (++/--, 20-30% increase/decrease over the range)
Urea (kidney marker) [6, 13]: = (=, variation ≤ 10%)
Uric acid (kidney marker) [6, 13]: - (+/-, 10-20% increase/decrease over the range)
IC50 [7]: 12.4 ± 1.1 µM
IC50 [8]: 15.1 µM
IC50 (Vero cells): 80.4 ± 7.1 µM
parasite-free organs/tissues by PCR, acute phase treatment (T. cruzi Arequipa strain; 20 mg·kg–1 per day i.p. 5 days from 9 dpi, necropsy 145 dpi): 28.6%
anti-T. cruzi IgG levels (ELISA), chronic phase treatment (T. cruzi Arequipa strain; 20 mg·kg–1 per day i.p. 5 days from 100 dpi): similar
parasite-free organs/tissues by PCR, chronic phase treatment (T. cruzi Arequipa strain; 20 mg·kg–1 per day i.p. 5 days from 100 dpi, necropsy 145 dpi): 42.9%
IC50 [9]: 19.7 ± 1.7 µM
